± gives the expanded uncertainty stated by the source.
Assay: molar heat capacity at constant pressure
Settings: 101.33 kPa, Crystal, Small sample (50 mg) DSC

SMILES: Nc1c[nH]c(=O)[nH]c1=O [2,4(1H,3H)-pyrimidinedione, 5-amino-]
- molar heat capacity at constant pressure (298.15 K): 145 ± 2.9 J/K/mol
- molar heat capacity at constant pressure (303.15 K): 145.5 ± 2.9 J/K/mol
- molar heat capacity at constant pressure (308.15 K): 146.2 ± 2.9 J/K/mol
- molar heat capacity at constant pressure (313.15 K): 147 ± 2.9 J/K/mol
- molar heat capacity at constant pressure (318.15 K): 148 ± 3 J/K/mol
- molar heat capacity at constant pressure (323.15 K): 148.4 ± 3 J/K/mol
- molar heat capacity at constant pressure (328.15 K): 149.1 ± 3 J/K/mol
- molar heat capacity at constant pressure (333.15 K): 150 ± 3 J/K/mol
- molar heat capacity at constant pressure (338.15 K): 150.6 ± 3 J/K/mol
- molar heat capacity at constant pressure (343.15 K): 151.3 ± 3 J/K/mol

SMILES: Cn1c(N)cc(=O)n(C)c1=O [6-amino-1,3-dimethyluracil]
- molar heat capacity at constant pressure (298.15 K): 189 ± 3.8 J/K/mol
- molar heat capacity at constant pressure (303.15 K): 191 ± 3.8 J/K/mol
- molar heat capacity at constant pressure (308.15 K): 193.1 ± 3.9 J/K/mol
- molar heat capacity at constant pressure (313.15 K): 195.2 ± 3.9 J/K/mol
- molar heat capacity at constant pressure (318.15 K): 197.3 ± 3.9 J/K/mol
- molar heat capacity at constant pressure (323.15 K): 199.5 ± 4 J/K/mol
- molar heat capacity at constant pressure (328.15 K): 201.6 ± 4 J/K/mol
- molar heat capacity at constant pressure (333.15 K): 204 ± 4.1 J/K/mol
- molar heat capacity at constant pressure (338.15 K): 206 ± 4.1 J/K/mol
- molar heat capacity at constant pressure (343.15 K): 208 ± 4.2 J/K/mol

SMILES: Cn1c(N)cc(=O)[nH]c1=O [6-amino-1-methyluracil]
- molar heat capacity at constant pressure (298.15 K): 166.2 ± 3.3 J/K/mol
- molar heat capacity at constant pressure (303.15 K): 167 ± 3.3 J/K/mol
- molar heat capacity at constant pressure (308.15 K): 168 ± 3.4 J/K/mol
- molar heat capacity at constant pressure (313.15 K): 168.5 ± 3.4 J/K/mol
- molar heat capacity at constant pressure (318.15 K): 169.2 ± 3.4 J/K/mol
- molar heat capacity at constant pressure (323.15 K): 170 ± 3.4 J/K/mol
- molar heat capacity at constant pressure (328.15 K): 171 ± 3.4 J/K/mol
- molar heat capacity at constant pressure (333.15 K): 171.4 ± 3.4 J/K/mol
- molar heat capacity at constant pressure (338.15 K): 172.2 ± 3.4 J/K/mol
- molar heat capacity at constant pressure (343.15 K): 173 ± 3.5 J/K/mol

SMILES: Nc1cc(O)nc(O)n1 [6-aminouracil]
- molar heat capacity at constant pressure (298.15 K): 147 ± 2.9 J/K/mol
- molar heat capacity at constant pressure (303.15 K): 147.6 ± 3 J/K/mol
- molar heat capacity at constant pressure (308.15 K): 148.2 ± 3 J/K/mol
- molar heat capacity at constant pressure (313.15 K): 149 ± 3 J/K/mol
- molar heat capacity at constant pressure (318.15 K): 149.6 ± 3 J/K/mol
- molar heat capacity at constant pressure (323.15 K): 150.3 ± 3 J/K/mol
- molar heat capacity at constant pressure (328.15 K): 151 ± 3 J/K/mol
- molar heat capacity at constant pressure (333.15 K): 151.6 ± 3 J/K/mol
- molar heat capacity at constant pressure (338.15 K): 152.3 ± 3 J/K/mol
- molar heat capacity at constant pressure (343.15 K): 153 ± 3.1 J/K/mol

From the NIST ThermoML archive (doi:10.1021/je6005168)
